Data reported in patent US9550776B2, “Pyridinylpyrazoloquinoline compounds” (Eisai R&D Management Co., Ltd., priority 2013, dated 2017).

Key:
[1] = target: T1, human recombinant PDE9 protein (Homo sapiens, UniProt O76083); assay: PDE9 inhibitory activity test ([3H]-cGMP hydrolysis); type: biochemical
T1 construct: made in house; host or cells: silkworm (pYNG vector, Katakura Industries)
Method: An hsPDE9A 1cDNA fragment was amplified by being based on a base sequence (Accession No.: AF048837) of the hsPDE9A1 registered on GenBank data base, and by using the following sequences (Hokkaido System Science Co., Ltd.) as a primer and Human hippocampus cDNA library (Clontech Laboratories, Inc.) as a template DNA, and using Pfu50 DNA polymerase (Invitrogen Corp.), and by a polymerase chain reaction (PCR) of the following condition.
The condition of PCR: [96° C., 5 min]×1 cycle, [(96° C., 10 sec), (57° C., 5 sec), (72° C., 2 min)]×30 cycles
The obtained hsPDE9A 1cDNA fragment was incorporated in a TOPO-TA cloning vector (Invitrogen Corp.), and the base sequence was checked; and thereafter, the resultant was transfected in a pcDNA 3.1/myc His-tag vector (Invitrogen Corp.) to thereby make a human PDE9 expression vector for mammal cells. The human PDE9 expression vector for mammal cells was transfected with transient expression to an HEK293 cell by using a LIPOFETAMINE 2000 Reagent (Gibco). It was confirmed by Western blot method that the PDE9A expressed in the HEK293 cell, and then, the human PDE9A 1cDNA fragment was transfected in a pYNG vector (Katakura Industries Co., Ltd.) to thereby make an expression vector for insect cells. A supernatant of homogenized silk worm in which a large amount of PDE9 was expressed was purified by an equilibrated Ni column using a buffer A (20 mmol/L Tris-HCl, pH: 8.0, 1 mmol/L DTT, 10 mmol/L imidazole). After 1 hour of mixing of the supernatant and the Ni column, cleaning was carried out using a buffer B (20 mmol/L Tris-HCl, pH: 8.0, 1 mmol/L DTT), and elution was carried out using a buffer C (20 mmol/L Tris-HCl, pH: 8.0, 1 mmol/L DTT, 100 mmol/L imidazole). An elution fraction was preparatively collected to thereby obtain a PDE9 enzyme solution.
To 100 μL of a buffer D (40 mmol/L Tris-HCl, pH: 7.4, 10 mmol/L MgCl2, 1 mM DTT, 2 μM cGMP) solution containing [^3H]-cGMP (0.5 μCi/mL), 10 μL of a compound solution for evaluation (a solution in which a compound was dissolved in DMSO and diluted so that the DMSO concentration became 5%) and 90 μL of a solution prepared by diluting the PDE9 enzyme solution prepared in the above with a buffer E (40 mmol/L Tris-HCl, pH: 7.4, 10 mmol/L MgCl2, 1 mM DTT, 1 mmol/L EGTA) were added under ice cooling. The resultant mixed solution was incubated at 30° C. for 10 min, and thereafter heated for 2 min in boiled water to stop the enzyme reaction of the PDE9. Then, the resultant was returned to room temperature; 50 μL of 5′-Nucleotidase (Biomol GmbH, 10 units/mL) was added thereto; and the resultant was incubated at 30° C. for 10 min to thereby convert [^3H]-5′-GMP formed in the previous reaction to [^3H]-guanosine. 500 μL of an anion exchange resin (Bio-Rad AGl-X2 resin, mesh size: 200-400, H2O:resin=2:1) was added to the resultant reaction liquid, and allowed to stand for 10 min, and thereafter centrifuged (2,000 rpm, 10 min); and a supernatant in which the [^3H]-guanosine was present was transferred to a LumaPlate (PerkinElmer, Inc.), and the radioactivity was measured by a TopCount NXT microplate scintillation and luminescence counter (PerkinElmer, Inc.).
The inhibition percentage of the evaluation compound was calculated using the following expression, taking the radioactivity of a control containing no evaluation compound to be (A), the radioactivity of a blank containing no enzyme to be (B), and the radioactivity of the evaluation compound to be (C). Inhibition percentage=100−{[(C)−(B)]/[(A)−(B)]}×100(%)
The IC50 value for PDE9 of the evaluation compound was determined from inhibition percentage for various concentrations.

[2] = tested on: cerebrospinal fluid cGMP; assay: Effect on rodent cerebrospinal fluid cGMP; type: in vivo; details: rat (LE), 10 mg/kg p.o., sampling time 2 hr
Method: The test compound was administered to ICR male mice (Charles River Laboratories Japan, Inc.), Sprague-Dawley male rats (SD) (Charles River Laboratories Japan, Inc.) or Long-Evans male rats (LE) (Institute for Animal Reproduction), and the cerebrospinal fluid was then collected under pentobarbital anesthesia and stored at −20° C. cGMP in the cerebrospinal fluid was measured in accordance with the acetylation EIA procedure of cGMP EIA kit (GE Healthcare) or the non-acetylation procedure of cGMP EIA kit (Cayman). The result was an increase (C) in the amount of cGMP of the test compound-administered group (B) relative to the amount of cGMP of the vehicle-administered group (A), and was calculated using the following formula. cGMP increase(C)=[(B)−(A)]/(A)×100(%)

[3] = tested on: hippocampal cGMP; assay: Effect on rodent hippocampal cGMP; type: in vivo; details: rat (LE), 10 mg/kg p.o., sampling time 2 hr
Method: The test compound was administered to Sprague-Dawley male rats (Charles River Laboratories Japan, Inc.) or Long-Evans male rats (Institute for Animal Reproduction) and then the animals were sacrificed with microwave under pentobarbital anesthesia, and the hippocampus was extracted. After measuring the wet weight, the hippocampus was frozen with liquid nitrogen and stored at −80° C. In the measurement of cGMP in the hippocampus, a 0.5 M perchloric acid/1 mM EDTA solution was added at 5% (w/v) based on the wet weight, and the mixture was homogenized. After the homogenization, the homogenate was centrifuged (10000 rpm, 15 min), and the supernatant was collected. The collected supernatant was neutralized with a 2 M potassium bicarbonate solution and centrifuged (13000 rpm, 10 min). The cGMP concentration in the supernatant was measured in accordance with the non-acetylation EIA procedure of cGMP EIA kit (GE Healthcare). The result was an increase (C) in the amount of cGMP of the test compound-administered group (B) relative to the amount of cGMP of the vehicle-administered group (A), and was calculated using the following formula. cGMP increase(C)=[(B)−(A)]/(A)×100(%)

T1 sequence (O76083 whole entry): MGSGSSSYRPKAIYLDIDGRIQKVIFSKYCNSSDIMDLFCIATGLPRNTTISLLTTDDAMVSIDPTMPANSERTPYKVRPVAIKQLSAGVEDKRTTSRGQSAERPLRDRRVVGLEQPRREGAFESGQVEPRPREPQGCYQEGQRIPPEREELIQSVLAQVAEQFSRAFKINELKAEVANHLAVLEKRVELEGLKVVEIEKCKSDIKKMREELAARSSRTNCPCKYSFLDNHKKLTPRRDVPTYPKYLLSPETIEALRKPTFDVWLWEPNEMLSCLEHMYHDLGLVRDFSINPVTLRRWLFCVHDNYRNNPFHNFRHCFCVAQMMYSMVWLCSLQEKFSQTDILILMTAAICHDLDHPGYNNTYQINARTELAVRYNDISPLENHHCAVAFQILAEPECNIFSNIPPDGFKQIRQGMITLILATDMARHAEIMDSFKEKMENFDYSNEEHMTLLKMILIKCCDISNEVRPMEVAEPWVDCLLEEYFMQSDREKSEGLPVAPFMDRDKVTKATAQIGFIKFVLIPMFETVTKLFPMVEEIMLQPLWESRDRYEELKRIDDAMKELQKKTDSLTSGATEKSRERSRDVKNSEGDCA

Row | Compound | IC50 [1] [nM] | % CSF cGMP increase from vehicle control [2] [%] | % hippocampal cGMP increase from vehicle control [3] [%]
1 | COc1nc(C)cc(C)c1-c1ccc2c(c1)[nH]c(=O)c1cnn([C@@H]3CCOC[C@@H]3C)c12 (single isomer, unassigned) [Example 2b, (−)-7-(2-Methoxy-4,6-dimethylpyridin-3-yl)-1-((3R*,4R*)-3-methyltetrahydro-2H-pyran-4-yl)-1H-pyrazolo[4,3-c]quinoline-4(5H)-one] | 3.7 |  | 
2 | COc1nc(C)cc(C)c1-c1ccc2c(c1)[nH]c(=O)c1cnn([C@@H]3CCOC[C@@H]3C)c12 (single isomer, unassigned) [Example 2c, (+)-7-(2-Methoxy-4,6-dimethylpyridin-3-yl)-1-((3R*,4R*)-3-methyltetrahydro-2H-pyran-4-yl)-1H-pyrazolo[4,3-c]quinoline-4(5H)-one] | 12.3 |  | 
3 | COc1ncc(C)c(-c2ccc3c(c2)[nH]c(=O)c2cnn([C@H]4CC[C@@H](OC)CC4)c23)c1C [Example 5a, 7-(2-methoxy-3,5-dimethylpyridin-4-yl)-1-(cis-4-methoxycyclohexyl)-1H-pyrazolo[4,3-c]quinoline-4(5H)-one] | 9.8 |  | 
4 | COc1ncc(C)c(-c2ccc3c(c2)[nH]c(=O)c2cnn([C@H]4CC[C@H](OC)CC4)c23)c1C [Example 5b, 7-(2-methoxy-3,5-dimethylpyridin-4-yl)-1-(trans-4-methoxycyclohexyl)-1H-pyrazolo[4,3-c]quinoline-4(5H)-one] | 12.7 | 167 | 41
5 | (+)-7-(2-Methoxy-3,5-dimethylpyridin-4-yl)-1-((3R*,4R*)-3-methyltetrahydro-2H-pyran-4-yl)-1H-pyrazolo[4,3-c]quinoline-4(5H)-one [Example 3b] | 25.6 |  | 
6 | (+)-7-(2-Methoxy-3,5-dimethylpyridin-4-yl)-1-((3R*,4S*)-3-methyltetrahydro-2H-pyran-4-yl)-1H-pyrazolo[4,3-c]quinoline-4(5H)-one [Example 4b] | 39.1 |  | 
7 | (+)-7-(2-methoxy-4,6-dimethylpyridin-3-yl)-1-((3R*,4S*)-3-methyltetrahydro-2H-pyran-4-yl)-1H-pyrazolo[4,3-c]quinoline-4(5H)-one [Example 2a] | 11.6 |  | 
8 | (+)-7-(6-Methoxy-2,4-dimethylpyridin-3-yl)-1-((3R*,4S*)-3-methyltetrahydro-2H-pyran-4-yl)-1H-pyrazolo[4,3-c]quinoline-4(5H)-one [Example 1c] | 87.2 |  | 
9 | (+)-7-(6-methoxy-2,4-dimethylpyridin-3-yl)-1-((3R*,4R*)-3-methyltetrahydro-2H-pyran-4-yl)-1H-pyrazolo[4,3-c]quinoline-4(5H)-one [Example 1a] | 48 |  | 
10 | (−)-7-(2-Methoxy-3,5-dimethylpyridin-4-yl)-1-((3R*,4S*)-3-methyltetrahydro-2H-pyran-4-yl)-1H-pyrazolo[4,3-c]quinoline-4(5H)-one [Example 4a] | 5.8 |  | 
11 | (−)-7-(2-Methoxy-4,6-dimethylpyridin-3-yl)-1-((3R*,4S*)-3-methyltetrahydro-2H-pyran-4-yl)-1H-pyrazolo[4,3-c]quinoline-4(5H)-one [Example 2d] | 1.3 | 183 | 23
12 | (−)-7-(2-methoxy-3,5-dimethylpyridin-4-yl)-1-((3R*,4R*)-3-methyltetrahydro-2H-pyran-4-yl)-1H-pyrazolo[4,3-c]quinoline-4(5H)-one [Example 3a] | 6.9 | 200 | 58
13 | (−)-7-(6-Methoxy-2,4-dimethylpyridin-3-yl)-1-((3R*,4R*)-3-methyltetrahydro-2H-pyran-4-yl)-1H-pyrazolo[4,3-c]quinoline-4(5H)-one [Example 1b] | 13.6 | 147 | 44
14 | (−)-7-(6-Methoxy-2,4-dimethylpyridin-3-yl)-1-((3R*,4S*)-3-methyltetrahydro-2H-pyran-4-yl)-1H-pyrazolo[4,3-c]quinoline-4(5H)-one [Example 1d] | 6.9 | 206 | 61
